Data: patent US20050282818A1, “Ubiquitin ligase inhibitors” (Rigel Pharmaceuticals, Inc., priority 2004, published 2005)
Where two headings read alike, the source gives them in different places.

Assays:
[1] = molecular target: T1, TRAF6/Uev1A/Ubc13 (Homo sapiens, UniProt Q9Y4K3); assay: TRAF6/Uev1A/Ubc13 plate-based ubiquitin ligase assay; format: biochemical
T1 sequence (Q9Y4K3 1-522): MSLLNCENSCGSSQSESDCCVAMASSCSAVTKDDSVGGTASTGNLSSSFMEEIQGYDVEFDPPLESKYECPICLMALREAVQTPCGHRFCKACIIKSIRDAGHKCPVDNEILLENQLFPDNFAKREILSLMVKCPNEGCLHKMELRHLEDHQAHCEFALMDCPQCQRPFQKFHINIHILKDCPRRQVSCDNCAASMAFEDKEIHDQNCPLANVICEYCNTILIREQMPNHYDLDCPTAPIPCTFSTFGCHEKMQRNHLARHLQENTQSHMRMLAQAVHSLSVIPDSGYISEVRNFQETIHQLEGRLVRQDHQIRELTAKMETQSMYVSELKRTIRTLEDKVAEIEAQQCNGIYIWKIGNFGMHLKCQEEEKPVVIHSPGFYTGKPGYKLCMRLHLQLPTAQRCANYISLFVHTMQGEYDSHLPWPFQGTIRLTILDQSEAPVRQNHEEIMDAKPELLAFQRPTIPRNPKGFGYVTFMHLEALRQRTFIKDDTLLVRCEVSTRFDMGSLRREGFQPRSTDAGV
Description: For the assays described below, the TRAF6/Uev1A/UBC13 assay is the biochemical plate-based assay of TRAF6 ligase activity using Ubc13 as the E2 enzyme. The gel-based assay is the biochemical solution-based TRAF6 ligase assay (by SDS-PAGE and Western blot) to confirm the plate-based ELISA assay. The APC assay is an assay which is another E3 ligase (APC2/APC11) biochemical assay.
A 96-well Ni-plate was blocked with 100 μl of 1% casein in PBS for 1 hour at room temperature. The plates were then washed three times with 200 μl of 1×PBS and 80 μl of a reaction buffer was added per well which contained 50 ng of Flag-ubiquitin, 50 ng of His-ubiquitin, 62.5 mM Tris pH 7.5, 6.25 mM MgCl2, 1.0 mM DTT, and 2 μM ATP. To each well was added 10 μl of a solution of the compound in DMSO. The reaction was started by adding 10 μl of a solution consisting of 10 ng human E1, 25 ng each of Uev1a and Ubc13, and 100 ng TRAF6 in the reaction buffer. The plates were shaken for 10 minutes and incubate at room temperature for 1 hour. After the incubation, the plates were washed three times with 200 μl 1×PBS in 0.05% Tween and 100 μl of an antibody mix consisting of anti-Flag (1:30,000 dilution; Sigma F-3165) and anti-Mouse IgG-HRP (1/150,000 dilution; Jackson Immunoresearch #115-035-146) in 1×PBS with 0.25% BSA. The plates were then incubated for another 1 hour at room temperature, and after incubation the plate was washed three times with 200 μl 1×PBS with 0.05% Tween. The amount of ubiquitin was measured by adding 100 μl of Lumino substrate (1:5 dilution) and reading the luminescence with a fluorimeter.
Table 2 below illustrates the inhibitory activity of the compounds of the invention determined by the TRAF6/Uev1A/Ubc13 assay as well as in the ICAM, APC and the ROC1/CUL1 Ubiquitin Ligase Assay (SCF Assay). The IC50 values were determined using a various concentrations of the compounds.

[2] = tested on: A549 cells; assay: Cell proliferation PAD assay, A549; format: cell-based; settings: Homo sapiens, 48 hours
Description: (§1) Cell lines used are available from American Type Culture Collection (ATCC), for example, cell cultures containing A549 (ATCC# CCL-185), HeLa (ATCC# CCL-2), HCT116 ATTC# CCL-247), and H1299 (ATCC# CRL-5803) cells were maintained in T175 flasks following the ATCC recommended media and handling procedures. […] A 20,000 cells/ml solution was made for plating. Cells were plated in black Packard 96 well plates by placing 100 μl per well (2,000 cells per well). […] The definitions of the cell types used are as follows: A549 is lung carcinoma; HI 299 is non-small cell lung carcinoma; HI 155 is non-small cell lung carcinoma; AsPC-1 is pancreatic adenocarcinoma; Caov-3 is ovarian adenocarcinoma; COLO 205 is colorectal adenocarcinoma; DLD-1 colorectal adenocarcinoma; HCT116 is colorectal carcinoma; DU 145 is prostate carcinoma; ES-2 is ovarian clear cell carcinoma; H460 is large cell lung carcinoma; HELA is cervical adenocarcinoma; MIA PaCa-2 is pancreatice carcinoma; OVCAR-3 is ovarian adenocarcinoma; OVCAR8 is ovarian carcinoma; PC3 is prostate adenocarcinoma; SK-OV-3 is ovarian adenocarcinoma; SU86.86 is pancreatic carcinoma; TOV-21G is avarian clear cell carcinoma; U2OS is bone osteosarcoma; is ASPC-I is pancreatic adenocarcinoma; BXPC-3 is pabcreatic adenocarcinoma; HL60 is promyeloblast promyelocytic leukemia; K562 is bone marrow chronic myelogenous leukemia; L1210 is mouse lymphocytic leukemia; MOLT3 is T lymphoblast acute lymphoblastic leukemia; MOLT4 is T lymphoblast acute lymphoblastic leukemia; SW620 is colorectal adenocarcinoma; THP-1 is monocyte acute monocytic leukemia; U937 is histiocytic lymphoma; and UACC-257 is melanoma.
(§2) Compounds and additional media were added 24 hours after cell plating. […] All compound testing was done in duplicate using 6.3 fold dilutions starting with 10 mM. […] Taxol and at least one additional control were run on all plates. Three microliters of the compound master plate were added to deep well blocks containing 750 μl of RPMI media. One hundred microliters were transferred from the compound/media deep well blocks to the plated cells resulting in a 500 fold dilution of the compounds. Cells were grown at 37° C., 5% CO2 for 48 hours.
(§3) Cells to be analyzed by photography were fixed and stained. One hundred microliters of media were removed and 100 μl of 9.3% formamide was added to each well. Plates were left on the benchtop for 45 minutes. A staining solution containing 1.55 μl of 1 mg/ml DAPI added to 18.75 ml PBS was warmed for 15 minutes at 37° C. The cells were aspirated prior to washing with 100 μl of PBS. Seventy microliters of PBS were aspirated and 170 μl of the DAPI solution were added to each well of fixed cells. Plates were left at room temperature for one hour then aspirated and washed twice with 100 μl of PBS. The stained cells were left at 4° C. for a minimum of 16 hours before photographic analysis with Array Scan II (Cellomics). Analysis of the photographic images to determine numbers of live cells (proliferation), apoptotic cells and dead cells, were according to the methods described in U.S. Utility patent application Ser. No. 10/652,440, which incorporated herein in its entirety.

[3] = tested on: H1299 cells; assay: Cell proliferation PAD assay, H1299; format: cell-based; settings: Homo sapiens, NCI-H1299, 3pt, 48 hours, read-out: H1299 3pt
Description: as §1, §2, §3

Compound	IC50 [1] [µM]	IC50 ([2]; 3pt, read-out: A549 3pt) [µM]	IC50 [3] [µM]	IC50 ([2]; 6pt, read-out: A549 6pt) [µM]
COC(=O)c1ccc(NS(=O)(=O)c2ccc(Cl)c3nonc23)cc1 [compound 8, Methyl 4-{[(7-chloro-2,1,3-benzoxadiazol-4-yl)sulfonyl]amino}benzoate]	≥ 20	≥ 20	–	–
O=S(=O)(Nc1ccc(F)c(Cl)c1)c1cccc2nonc12 [compound 14, N-(3-chloro-4-fluorophenyl)-2,1,3-benzoxadiazole-4-sulfonamide]	–	≥ 20	≥ 20	–
O=S(=O)(Nc1c(F)cccc1F)c1cccc2nonc12 [compound 15, N-(2,6-difluorophenyl)-2,1,3-benzoxadiazole-4-sulfonamide]	–	≥ 20	1 to 20	–
O=S(=O)(Nc1c(F)cc(F)cc1F)c1cccc2nonc12 [compound 16, N-(2,4,6-trifluorophenyl)-2,1,3-benzoxadiazole-4-sulfonamide]	–	≥ 20	≥ 20	–
Cc1cc(NS(=O)(=O)c2cccc3nonc23)ccc1I [compound 18, N-(4-iodo-3-methylphenyl)-2,1,3-benzoxadiazole-4-sulfonamide]	–	≥ 20	≥ 20	–
Cc1cc(F)ccc1NS(=O)(=O)c1cccc2nonc12 [compound 19, N-(4-fluoro-2-methylphenyl)-2,1,3-benzoxadiazole-4-sulfonamide]	–	≥ 20	≥ 20	–
Cc1ccc(C)c(NS(=O)(=O)c2cccc3nonc23)c1 [compound 21, N-(2,5-dimethylphenyl)-2,1,3-benzoxadiazole-4-sulfonamide]	–	≥ 20	1 to 20	–
O=S(=O)(Nc1cccc(F)c1)c1cccc2nonc12 [compound 22, N-(3-fluorophenyl)-2,1,3-benzoxadiazole-4-sulfonamide]	–	≥ 20	≥ 20	–
O=S(=O)(Nc1ccc(F)c(F)c1)c1cccc2nonc12 [compound 23, N-(3,4-difluorophenyl)-2,1,3-benzoxadiazole-4-sulfonamide]	–	≥ 20	≥ 20	–
Cc1cc2cc(NS(=O)(=O)c3cccc4nonc34)ccc2[nH]1 [compound 24, N-(2-methyl-1H-indol-5-yl)-2,1,3-benzoxadiazole-4-sulfonamide]	–	1 to 20	1 to 20	–
O=S(=O)(Nc1cc(F)ccc1F)c1cccc2nonc12 [compound 27, N-(2,5-difluorophenyl)-2,1,3-benzoxadiazole-4-sulfonamide]	–	≥ 20	≥ 20	–
O=S(=O)(Nc1cccc(Cl)c1)c1cccc2nonc12 [compound 43, N-(3-chlorophenyl)-2,1,3-benzoxadiazole-4-sulfonamide]	–	1 to 20	≥ 20	–
O=S(=O)(NCc1ccccn1)c1cccc2nonc12 [compound 49, N-(pyridin-2-ylmethyl)-2,1,3-benzoxadiazole-4-sulfonamide]	–	≥ 20	≥ 20	–
COCCNS(=O)(=O)c1cccc2nonc12 [compound 50, N-(2-methoxyethyl)-2,1,3-benzoxadiazole-4-sulfonamide]	–	≥ 20	≥ 20	–
COc1ccc(NS(=O)(=O)c2cccc3nonc23)cc1 [compound 51, N-(4-methoxyphenyl)-2,1,3-benzoxadiazole-4-sulfonamide]	–	≥ 20	≥ 20	–
O=S(=O)(Nc1cc(Cl)cc(Cl)c1)c1cccc2nonc12 [compound 52, N-(3,5-dichlorophenyl)-2,1,3-benzoxadiazole-4-sulfonamide]	–	≥ 20	≥ 20	–
O=S(=O)(NCC1CCCCC1)c1cccc2nonc12 [compound 53, N-(cyclohexylmethyl)-2,1,3-benzoxadiazole-4-sulfonamide]	–	≥ 20	≥ 20	–
O=C1OC2(CCN(c3ccc([N+](=O)[O-])c4nonc34)CC2)c2ccccc21 [compound 302, 1′-(7-nitro-2,1,3-benzoxadiazol-4-yl)-3H-spiro[2-benzofuran-1,4′-piperidin]-3-one]	1 to 20	–	–	–
CCN(CC)c1cc(N2CCC3(CC2)OC(=O)c2ccccc23)c2nonc2c1[N+](=O)[O-] [compound 303, 1′-[6-(diethylamino)-7-nitro-2,1,3-benzoxadiazol-4-yl]-3H-spiro[2-benzofuran-1,4′-piperidin]-3-one]	≥ 20	–	–	–
O=C1OC2(CCN(c3cc(N4CCCCC4)c([N+](=O)[O-])c4nonc34)CC2)c2ccccc21 [compound 304, 1′-(7-nitro-6-piperidin-1-yl-2,1,3-benzoxadiazol-4-yl)-3H-spiro[2-benzofuran-1,4′-piperidin]-3-one]	≥ 20	–	–	–
FC(F)(F)c1cccc(-c2cccc3nonc23)c1 [compound 305, 4-[3-(Trifluoromethyl)phenyl]-2,1,3-benzoxadiazole]	≥ 20	–	–	–
Cc1cccc(-c2cccc3nonc23)c1 [compound 306, 4-(3-Methylphenyl)-2,1,3-benzoxadiazole]	≥ 20	–	–	≥ 20
COC(=O)c1ccc(NS(=O)(=O)c2ccc(Sc3ccc4ccccc4n3)c3nonc23)cc1 [compound 316, Methyl 4-({[7-(quinolin-2-ylthio)-2,1,3-benzoxadiazol-4-yl]sulfonyl}amino)benzoate]	≥ 20	–	–	–
COc1ccccc1-c1cc(Cl)c2nonc2c1 [compound 330, 4-Chloro-6-(2-methoxyphenyl)-2,1,3-benzoxadiazole]	–	–	–	≥ 20
O=[N+]([O-])c1cccc(-c2cc(Cl)c3nonc3c2)c1 [compound 331, 4-Chloro-6-(3-nitrophenyl)-2,1,3-benzoxadiazole]	–	–	–	≥ 20
